Results on two compounds are retold here after patent publication US10351519B2, “Sulfamate derivative compounds, processes for preparing them and their uses” (BIO-PHARM SOLUTIONS CO., LTD., priority 2016, dated 2019).

What all share (type): in vivo
Experiment [1] concerns ICR mice. In words: Writhing test (0.6% acetic acid). The conditions noted are these: for ED50: Mus musculus, po. The method, then:
To examine the pain relief effect of the sulfamate compounds, a writhing test was conducted, referring to Fischer, L. G. et al. (2008).
ICR mice (male, 24-28 g; Orient Bio, Korea) were habituated before test in test room for 1 hour. Animals were fasted 2 hr, before administration of compounds. Each of Compounds was orally administered at the three dose, 10 ul/g, by bodyweight (All compounds were dissolved in a vehicle of 30% (v/v) PEG 400 or 20% (v/v) Tween 80. The control group was treated with the vehicle without compounds.
0.25-2 hour after the administration of Compounds, 0.6% acetic acid at the dose of 10 ul/g, by bodyweight was injected into the mice. Animals were habituated in the cage for 5 min. 5 min after habituation, the number of writhes (abdominal constriction) was conted for 15 min, referring to Korzeniewska-Rybicka, I. et al. (1998) and compared with that of a control.
In general terms: Writhing tests count abdominal constrictions after an irritant is injected.

For experiment [2], the system named is ICR mice. Kind of experiment: Tail-flick test. The conditions noted are these: orally. The procedure:
To examine the pain relief effect of the sulfamate compounds, a tail-flick test was conducted, referring to Current Protocols in Neuroscience; Behavioral Neuroscience Unit 8.9.
ICR mice (male, 25-30 g; Orient Bio, Korea) were habituated before test (in test room) for 1 hour. Animals were fasted 2 hr before administration of compounds. Each of the tested compound were orally administered at the 1˜3 dose, 10 ul/g, by bw (n=4-6/group). All compounds were dissolved in a vehicle of 30% (v/v) PEG 400 or 20% (v/v) Tween 80. The control group was treated the vehicle without compounds.
After the administration of compounds, the mice tail were put on a tail-flick analgesia meter. To avoid tissue damage, maximal exposure time to pain stimuli was restricted to 15 seconds. The withdrawal latency was measured to the time to the point when each mouse responded. The relative values compared to the control (% control) were calculated.
A general note: In hot-plate and tail-flick tests a longer latency is read as antinociception.

The subject of experiment [3] is Sprague-Dawley rats. Kind of experiment: Antiallodynic activity on post operative-induced pain model. Conditions: intraperitoneal injection; for ED50: Rattus norvegicus, ip, read-out: Post Operation ED50. The text has this: Male Sprague-Dawley rats (230-250 g, Orient Bio, Korea), were habituated at least 3 days before surgery and were allowed free access to food and water throughout the experimentation. Room temperature and humidity were maintained at 24±2 and 50±10%, respectively. The process of performing the post-operation model's surgery was adapted from Brennan et al (1996). At first, rats with allodynia (threshold valueless than 8 g) were excluded in Pre-von Frey Test. During the post-operation surgery, rats were anesthetized under gaseous anesthesia with 2% isoflurane. The rat was placed, lying face down on 37 degree warm plate to prevent against hypothermia. The ipsilateral plantar aspect (left side) of the hind paw was prepared in a sterile manner with a 10% povidone-iodine solution. A 1 cm longitudinal incision was made with a number 10 blade, through the skin and fascia of the ipsilateral plantar aspect of the foot, starting from 0.5 cm from the proximal edge of the heel and extending toward the toes. Rats' plantar muscles were elevated and incised longitudinally. After hemostasis with gentle pressure, the skin was opposed with 2 mattress sutures of 4-0 Dafilon.
After 24 hours of recovery, rats with a good response (threshold less than 4 g) in Pre-von Frey Test were selected. According to this response, we made three groups with each group having equal average responses: Group 1, post-operation and drug treated; Group 2, post-operation and vehicle treated; Group 3, no post-operation and vehicle treated. In this study, Group 3 was the sham control (positive) group. […]
For efficacy measure, the threshold value of group C was assigned 100% efficacy, and the percentage of the threshold values of group A compared to group C (for each different dose level) were calculated as the efficacies. Base on these efficacy values, ED50 was calculated using log fitting. […]
For pain threshold test, all animals were placed in a stainless steel meshed chamber and habituated for 30 min in the test cage. The tactile sensitivity of the ipsilateral hind paw was measured using the up-and-down method (Dixon, 1980) with seven von Frey monofilaments (0.4, 1, 2, 4, 6, 8, and 15 g) using 3 trials. The 50% paw withdrawal threshold for each paw was calculated using the following formula: [Xth] log=[vFr] log+ky, where [vFr] is the force of the last von Frey filament used, k=0.2249 which is the average interval (in log units) between the von Frey monofilaments, y which is a value that depends upon the pattern of withdrawal responses, and Xth which is the threshold value (Dixon, 1980). […]
The relative values compared to the sham (% control) were calculated and shown in Table 7, which show an antiallodynic effect of the compound of examples on Post operation-induced pain model in rats.

The subject of experiment [4] is Sprague-Dawley rats. In words: Lithium-pilocarpine induced epilepsy test, intervention. Conditions: Rattus norvegicus, iv, i.v. at SE onset, read-out: Lithium pilocarpine model(inter) ED50. The method, then:
Male Sprague-Dawley rats (purchased from Orient Bio Inc. Korea) of body weight 175 grams were used for these studies and 3 rats per cage were housed for 4-5 days. On the day prior to SE, rats received 127 mg/kg lithium chloride (Sigma, St. Louis, Mo., U.S.A.) intraperitoneally (i.p.). Approximately 18-20 h following this treatment, rats were given an i.p. injection of CD97 dose (30-43 mg/kg) pilocarpine (Sigma). An i.p. injection of 2 mg/kg methyl-scopolamine (Sigma) was administered 30 min prior to pilocarpine to block the effects of the muscarinic agonist on peripheral cholinergic receptors. Test drugs were dissolved in 20% tween80 (Sigma).
The drugs were administered intravenously (i.v.) in a volume of 2 ul/g body weight at SE onset. Pharmacological effects of all of the test materials were evaluated to compare test groups (n=3-6) with a control group (n=3-6). Control group was administered vehicle only. The animals were then transferred to observation cages and observed continuously for 90 min. Seizure was elicited in approximately 95% of the control group. Protection was defined as complete absence of seizure grade 3-5 (Racine scale; Racine, 1972) over the 90-min observation period. The effective dose of the compound necessary to protect 50% of the animals against seizures compared to controls (i.e. ED50) was determined by a curve fitting program (Excel 2007, Microsoft).

For `C[C@@H](OS(N)(=O)=O)[C@H](O)c1c(Cl)cccc1Cl` [Example 8, (1R, 2R)-1-(2,6-dichlorophenyl)-1-hydroxypropan-2-yl sulfamate], in the experiment on ICR mice [1], the “Writhing test(po) Peak Time” value stood at 0.25 h and the ED50 amounted to 50.6 mg/kg. Besides, the “tail-flick test Dose” value with ICR mice [2] is above 200 mg/kg. Moreover, in the experiment with Sprague-Dawley rats [3], the ED50 was 4.2 mg/kg and the “Post Operation Peak Time” value is listed as 0.5 h. For the same compound, the ED50 in the experiment with Sprague-Dawley rats [4] is 44.8 mg/kg.

For `C[C@H](OS(N)(=O)=O)[C@@H](O)c1c(Cl)cccc1Cl` [Example 7, (1S, 2S)-1-(2,6-dichlorophenyl)-1-hydroxypropan-2-yl sulfamate], the “Writhing test(po) Peak Time” value in the experiment with ICR mice [1] worked out at 0.5 h. Moreover, the ED50 in the experiment with ICR mice [1] came to 69.6 mg/kg; with Sprague-Dawley rats [3], 5.8 mg/kg; in the experiment with Sprague-Dawley rats [4], 23.3 mg/kg. Also, the “tail-flick test Peak Time” value with ICR mice [2] is 1~2 hr. In the experiment on ICR mice [2] (100 mg/kg), the “tail-flick test efficacy %” value is 100 (19.0%). Besides, the “Post Operation Peak Time” value in the experiment on Sprague-Dawley rats [3] came to 0.5 h.
